For experiment [1], the system named is reserpine-induced skeletal muscle rigidity. Put plainly: Muscle-relaxing effect on reserpine-induced muscular rigidity in rats. The conditions noted are these: Rattus norvegicus, ip, read-out: ED50, reduction of reserpine-induced skeletal muscle rigidity. The class given is in vivo, rat (male Sprague-Dawley). On the procedure: Male Sprague-Dawley rats weighing 200-220 g were kept in groups of two under standard conditions (temperature 22° C., humidity 40-60%) without any restriction in food or water. Illumination was provided from 6 a.m. to 6 p.m. The experiments were approved by the local animal health committee which was responsible for the protection and proper use of experimental animals.
The experimental approach has already been described in detail (Nickel et al. Arzn Forsch/Drug Res 1997; 47:1081-6). In brief, the rigidity of the skeletal muscle was measured by consecutively measuring the resistance of the flexor and extensor muscles which act in opposition when stretching and bending the foot in the joint. The pressure differences which were generated by the movement of the foot were recorded continuously. The signals were analyzed using a PC program which calculated the resistances of the flexor and extensor at the foot over periods of 10 min.
The active compounds were prepared freshly every day and were administered simultaneously i.p. at various doses 16 h after the reserpine injection (2 mg/kg, intraperitoneally).
The statistical analysis of the differences between the calculated and measured values was performed by means of a one-way. ANOVA. Asterisks (*) denote the significant level p<0.01.

The subject of experiment [2] is skeletal muscle tone of conscious mice. Put plainly: Skeletal muscle tone in mice in the inclined screen test. The format is in vivo, mouse (NMRI). The conditions noted are these: Mus musculus, ip, single substance, read-out: ED50, decrease of skeletal muscle tone (inclined screen test). As to the method:
NMRI mice weighing 22-24 g were kept in groups of four under standard conditions (temperature 22° C., humidity 40-60%) without any restriction in food and water. Illumination was provided from 6 a.m. to 6 p.m. All the experiments were approved by the local animal health committee which was responsible for the protection and proper use of experimental animals.
What is termed the “30 degrees inclined screen test” (Simiand et al., Arch Int Pharmacodyn Ther 1989; 297:272-85) was used as a pharmacological model which enables predictions to be made regarding muscle-relaxing properties. The inclined screen consists of a wooden frame containing a wire gauze screen which can be inclined at any arbitrary angle (in this present case: […]). The lower part of the screen is located 15 cm above the table. The animals are placed on the inclined screen and their ability to remain on the inclined screen is observed over a period of 30 s. The number of animals which fall from the screen is counted and the proportion it represents of the total number in each group is calculated. The active compounds were prepared freshly every day and were administered simultaneously i.p. at various doses, at 1 h before beginning the experiments, for analyzing the skeletal muscle tone.
The statistical analysis of the differences between the calculated and measured values were performed by means of a one-way ANOVA. […]

Among the data in patent publication US8557851B2, “Combinations of flupirtine and sodium channel inhibiting substances for treating pains” (MEDA Pharma GmbH & Co. KG, priority 2003, dated 2013) are ED50 values, retold here.

What is called ED50 is the midpoint of the dose-response relation. For `CCOC(=O)Nc1ccc(NCc2ccc(F)cc2)nc1N` [flupirtine], the ED50 in experiment [1] stood at 6.45 mg/kg; in experiment [2], 10.8 mg/kg.
On the same counts, the results for `Cc1ccc(C(=O)C(C)CN2CCCCC2)cc1` (stereo not shown) [tolperisone] are 32.4 mg/kg and 51 mg/kg.
